# Data taken from PubChem BioAssay (NCI).
#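 Briefly, cells in 96-well plates were exposed to five compound concentrations for 48 h, and endpoints were estimated by linear interpolation. TGI: total growth inhibition.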
# Assays:
# Experiment in all cases: inhibition of tumour cell growth, NCI panel, 48 h
# M19-MEL melanoma = system: M19-MEL melanoma
# SNB-19 CNS = system: SNB-19 CNS
# SNB-78 CNS = system: SNB-78 CNS
# HCT-116 colon = system: HCT-116 colon
# OVCAR-8 ovarian = system: OVCAR-8 ovarian
# UACC-257 melanoma = system: UACC-257 melanoma
# RXF 393 renal = system: RXF 393 renal
# M14 melanoma = system: M14 melanoma
# OVCAR-5 ovarian = system: OVCAR-5 ovarian
# MALME-3M melanoma = system: MALME-3M melanoma
# IGROV1 ovarian = system: IGROV1 ovarian
# UACC-62 melanoma = system: UACC-62 melanoma
# K-562 leukemia = system: K-562 leukemia
# A498 renal = system: A498 renal
# HL-60(TB) leukemia = system: HL-60(TB) leukemia
# EKVX NSCLC = system: EKVX NSCLC
# SK-MEL-2 melanoma = system: SK-MEL-2 melanoma
# HOP-62 NSCLC = system: HOP-62 NSCLC
# ACHN renal = system: ACHN renal
# SK-MEL-28 melanoma = system: SK-MEL-28 melanoma
# SF-268 CNS = system: SF-268 CNS
# CAKI-1 renal = system: CAKI-1 renal
# SN12C renal = system: SN12C renal
# HCT-15 colon = system: HCT-15 colon
# HT29 colon = system: HT29 colon
# OVCAR-3 ovarian = system: OVCAR-3 ovarian
# SNB-75 CNS = system: SNB-75 CNS
# SR leukemia = system: SR leukemia
# HCC-2998 colon = system: HCC-2998 colon
# KM12 colon = system: KM12 colon
# KM20L2 colon = system: KM20L2 colon
# NCI-H23 lung = system: NCI-H23 lung
# DMS 273 small cell lung = system: DMS 273 small cell lung
# SW-620 colon = system: SW-620 colon
# COLO 205 colon = system: COLO 205 colon
# OVCAR-4 ovarian = system: OVCAR-4 ovarian
# SF-539 CNS = system: SF-539 CNS
# NCI-H226 lung = system: NCI-H226 lung
# SF-295 CNS = system: SF-295 CNS
# NCI-H522 lung = system: NCI-H522 lung
# LOX IMVI melanoma = system: LOX IMVI melanoma
# SK-OV-3 ovarian = system: SK-OV-3 ovarian
# NCI-H460 lung = system: NCI-H460 lung
# RPMI-8226 leukemia = system: RPMI-8226 leukemia
# TK-10 renal = system: TK-10 renal
# UO-31 renal = system: UO-31 renal
# 786-0 renal = system: 786-0 renal
# DMS 114 small cell lung = system: DMS 114 small cell lung
# MOLT-4 leukemia = system: MOLT-4 leukemia
# A549 NSCLC = system: A549 NSCLC
# U251 CNS = system: U251 CNS
# MDA-MB-435 = system: MDA-MB-435
# MCF7 breast = system: MCF7 breast
# NCI/ADR-RES ovarian = system: NCI/ADR-RES ovarian
# HS 578T breast = system: HS 578T breast
# MDA-MB-231 breast = system: MDA-MB-231 breast
# SK-MEL-5 melanoma = system: SK-MEL-5 melanoma
# DU-145 prostate = system: DU-145 prostate
# BT-549 breast = system: BT-549 breast
# MDA-N = system: MDA-N
# HOP-92 NSCLC = system: HOP-92 NSCLC
# T-47D breast = system: T-47D breast
# PC-3 prostate = system: PC-3 prostate
# CCRF-CEM leukemia = system: CCRF-CEM leukemia
structure (smiles),measurement,setting,value
COc1ccc(-n2/c(=N/C(=S)N(C)C)ss/c2=N\C(=S)N(C)C)cc1,TGI,M19-MEL melanoma,> 100 µM
same,TGI,SNB-19 CNS,45.5 µM
same,TGI,SNB-78 CNS,> 100 µM
same,TGI,HCT-116 colon,> 100 µM
same,TGI,OVCAR-8 ovarian,> 100 µM
same,TGI,UACC-257 melanoma,> 100 µM
same,TGI,RXF 393 renal,> 100 µM
same,TGI,M14 melanoma,> 100 µM
same,TGI,OVCAR-5 ovarian,> 100 µM
same,TGI,MALME-3M melanoma,> 100 µM
same,TGI,IGROV1 ovarian,> 100 µM
same,TGI,UACC-62 melanoma,24.8 µM
same,TGI,K-562 leukemia,> 100 µM
same,TGI,A498 renal,> 100 µM
same,TGI,HL-60(TB) leukemia,> 100 µM
same,TGI,EKVX NSCLC,> 100 µM
same,TGI,SK-MEL-2 melanoma,> 100 µM
same,TGI,HOP-62 NSCLC,> 100 µM
same,TGI,ACHN renal,> 100 µM
same,TGI,SK-MEL-28 melanoma,> 100 µM
same,TGI,SF-268 CNS,> 100 µM
same,TGI,CAKI-1 renal,> 100 µM
same,TGI,SN12C renal,> 100 µM
same,TGI,HCT-15 colon,> 100 µM
same,TGI,HT29 colon,5.97 µM
same,TGI,OVCAR-3 ovarian,53.1 µM
same,TGI,SNB-75 CNS,52.6 µM
same,TGI,SR leukemia,> 100 µM
same,TGI,HCC-2998 colon,> 100 µM
same,TGI,KM12 colon,> 100 µM
same,TGI,KM20L2 colon,> 100 µM
same,TGI,NCI-H23 lung,> 100 µM
same,TGI,DMS 273 small cell lung,> 100 µM
same,TGI,SW-620 colon,> 100 µM
same,TGI,COLO 205 colon,> 100 µM
same,TGI,OVCAR-4 ovarian,18.5 µM
same,TGI,SF-539 CNS,> 100 µM
same,TGI,NCI-H226 lung,> 100 µM
same,TGI,SF-295 CNS,> 100 µM
same,TGI,NCI-H522 lung,16.6 µM
same,TGI,LOX IMVI melanoma,> 100 µM
same,TGI,SK-OV-3 ovarian,> 100 µM
same,TGI,NCI-H460 lung,11.2 µM
same,TGI,RPMI-8226 leukemia,> 100 µM
same,TGI,TK-10 renal,> 100 µM
same,TGI,UO-31 renal,> 100 µM
same,TGI,786-0 renal,> 100 µM
same,TGI,DMS 114 small cell lung,> 100 µM
same,TGI,MOLT-4 leukemia,> 100 µM
same,TGI,A549 NSCLC,> 100 µM
same,TGI,U251 CNS,> 100 µM
O=c1ccn([C@@H]2C[C@H]2CO)c(=O)[nH]1,TGI,MDA-MB-435,> 100 µM
same,TGI,MCF7 breast,> 100 µM
same,TGI,SNB-19 CNS,> 100 µM
same,TGI,HCT-116 colon,> 100 µM
same,TGI,NCI/ADR-RES ovarian,> 100 µM
same,TGI,HS 578T breast,> 100 µM
same,TGI,OVCAR-8 ovarian,> 100 µM
same,TGI,UACC-257 melanoma,> 100 µM
same,TGI,RXF 393 renal,> 100 µM
same,TGI,M14 melanoma,> 100 µM
same,TGI,OVCAR-5 ovarian,> 100 µM
same,TGI,MDA-MB-231 breast,> 100 µM
same,TGI,MALME-3M melanoma,> 100 µM
same,TGI,IGROV1 ovarian,> 100 µM
same,TGI,UACC-62 melanoma,> 100 µM
same,TGI,K-562 leukemia,> 100 µM
same,TGI,A498 renal,> 100 µM
same,TGI,HL-60(TB) leukemia,> 100 µM
same,TGI,EKVX NSCLC,> 100 µM
same,TGI,SK-MEL-5 melanoma,> 100 µM
same,TGI,SK-MEL-2 melanoma,> 100 µM
same,TGI,HOP-62 NSCLC,> 100 µM
same,TGI,ACHN renal,> 100 µM
same,TGI,SK-MEL-28 melanoma,> 100 µM
same,TGI,SF-268 CNS,> 100 µM
same,TGI,CAKI-1 renal,> 100 µM
same,TGI,DU-145 prostate,> 100 µM
same,TGI,SN12C renal,> 100 µM
same,TGI,HCT-15 colon,> 100 µM
same,TGI,HT29 colon,> 100 µM
same,TGI,SNB-75 CNS,> 100 µM
same,TGI,SR leukemia,> 100 µM
same,TGI,HCC-2998 colon,> 100 µM
same,TGI,KM12 colon,> 100 µM
same,TGI,NCI-H23 lung,> 100 µM
same,TGI,SW-620 colon,> 100 µM
same,TGI,COLO 205 colon,> 100 µM
same,TGI,BT-549 breast,> 100 µM
same,TGI,MDA-N,> 100 µM
same,TGI,OVCAR-4 ovarian,> 100 µM
same,TGI,SF-539 CNS,> 100 µM
same,TGI,NCI-H226 lung,> 100 µM
same,TGI,HOP-92 NSCLC,> 100 µM
same,TGI,NCI-H522 lung,> 100 µM
same,TGI,LOX IMVI melanoma,> 100 µM
same,TGI,NCI-H460 lung,> 100 µM
same,TGI,RPMI-8226 leukemia,> 100 µM
same,TGI,TK-10 renal,> 100 µM
same,TGI,UO-31 renal,> 100 µM
same,TGI,786-0 renal,> 100 µM
same,TGI,T-47D breast,> 100 µM
same,TGI,MOLT-4 leukemia,> 100 µM
same,TGI,PC-3 prostate,> 100 µM
same,TGI,CCRF-CEM leukemia,> 100 µM
same,TGI,A549 NSCLC,> 100 µM
same,TGI,U251 CNS,> 100 µM
